Laboratory results from patent US20140358576A1, “SYSTEM AND METHOD FOR SURVEILLANCE AND EVALUATION OF SAFETY RISKS ASSOCIATED WITH MEDICAL INTERVENTIONS” (Adverse Events, Inc., priority 2013, published 2014).
Where a name gives a salt, the structure may show the parent alone. Read-outs that look alike come from different tables or passages of the source.

What was measured:
[1] = patients, post-approval; cited from earlier work
[2] = for Condition Seriousness: Example 1 component score, up to 8.68 points; for Literature / ROR / RxScore / Adverse Event Seriousness / Outcome: human
[3] = human
[4] = RxScore calculation, Example 2 (FAERS components with event reporter Importance Weighting, no FDA warning/DEA schedule); conditions: for RxScore: Example 2, maximum of 100 total points, Importance Weighting applied; for Condition Seriousness / Adverse Event Seriousness / Outcome: Example 2 component score; for Condition Seriousness: up to 12 points; for Adverse Event Seriousness: up to 27 points; for Outcome: up to 35 points, comorbidity adjusted; for ROR: Example 2 disproportionality measure component score, up to 20 points; for Report Priority: Example 2 report type component score, up to 6 points
[5] = human; remark: listed apart in the source

SMILES | Literature [2] | ROR [2] | RxScore [2] | Adverse Event Seriousness [5] | Outcome [5] | ROR [5] | RxScore [5] | also measured
COCc1c(C(C)C)nc(C(C)C)c(/C=C/[C@@H](O)C[C@@H](O)CC(=O)O)c1-c1ccc(F)cc1 [Baycol] | – | – | – | – | – | – | – | side effect that became evident after FDA approval [1]: a fatal muscle-wasting syndrome
CC(C)CC(N(C)C)C1(c2ccc(Cl)cc2)CCC1 (stereo not shown) [Meridia, Sibutramine] | – | – | – | – | – | – | – | side effect that became evident after FDA approval [1]: severe cardiac complications
CS(=O)(=O)c1ccc(C2=C(c3ccccc3)C(=O)OC2)cc1 [Vioxx, rofecoxib] | – | – | – | – | – | – | – | side effect that became evident after FDA approval [1]: increased heart attack and stroke rates
NCCCC(O)(P(=O)(O)O)P(=O)(O)O [alendronate] | 5.0 | – | – | – | – | – | – | Condition Seriousness [2]: 7.02
COc1ccccc1Oc1c(NS(=O)(=O)c2ccc(C(C)(C)C)cc2)nc(-c2ncccn2)nc1OCCO [bosentan] | – | 3.81 | 81.44 | – | – | – | – | Condition Seriousness [2]: 2.07
CS(=O)(=O)OCCCCOS(C)(=O)=O [busulfan] | 12.5 | 7.15 | 86.04 | – | – | – | – | Condition Seriousness [2]: 2.52; Adverse Event Seriousness [2]: 14.67; Outcome [2]: 15.73
Nc1nc(F)nc2c1ncn2[C@@H]1O[C@H](CO)[C@@H](O)[C@@H]1O [fludarabine] | 12.5 | 4.60 | 78.34 | – | – | – | – | Adverse Event Seriousness [2]: 12.69; Outcome [2]: 15.34
CCC(=O)C(CC(C)N(C)C)(c1ccccc1)c1ccccc1 (stereo not shown) [methadone] | 18.8 | 4.85 | – | – | – | – | – | –
CCN(CC)CCNC(=O)c1cc(Cl)c(N)cc1OC [metoclopramide] | 12.5 | 12.97 | 78.08 | – | – | – | – | Condition Seriousness [2]: 7.15; Adverse Event Seriousness [2]: 4.46; Outcome [2]: 15.38
COc1ccc2c3c1O[C@H]1C(=O)CC[C@@]4(O)[C@@H](C2)N(C)CC[C@]314 [oxycodone] | 18.8 | 5.51 | 100.00 | – | – | – | – | disproportionality (ROR) score [3]: 268; Adverse Event Seriousness [2]: 14.17; Outcome [2]: 14.81
CN1CC[C@]23c4c5ccc(O)c4O[C@H]2C(=O)CC[C@@]3(O)[C@H]1C5 [oxymorphone] | 18.8 | 3.98 | 77.03 | – | – | – | – | Adverse Event Seriousness [2]: 6.21; Outcome [2]: 10.33
O=P(O)(O)C(O)(Cc1cccnc1)P(=O)(O)O [risedronate sodium (Actonel), risedronate sodium] | – | – | – | – | – | – | – | RxScore [4]: 46.13; Condition Seriousness [4]: 2.40; Adverse Event Seriousness [4]: 8.19; Outcome [4]: 13.15; ROR [4]: 4.82; Report Priority [4]: 3.46
O=P(O)(O)C(O)(Cc1cccnc1)P(=O)(O)O [risedronate sodium (Atelvia), risedronate sodium] | – | – | – | – | – | – | – | RxScore [4]: 39.63; Condition Seriousness [4]: 2.40; Adverse Event Seriousness [4]: 4.60; Outcome [4]: 12.68; ROR [4]: 5.34; Report Priority [4]: 1.63
CN(CCOc1ccc(CC2SC(=O)NC2=O)cc1)c1ccccn1 (stereo not shown) [rosiglitazone] | 12.5 | 5.53 | 79.48 | – | – | – | – | Condition Seriousness [2]: 3.77; Outcome [2]: 12.18
C=CC[C@@H]1/C=C(\C)C[C@H](C)C[C@H](OC)[C@H]2O[C@@](O)(C(=O)C(=O)N3CCCC[C@H]3C(=O)O[C@H](/C(C)=C/[C@@H]3CC[C@@H](O)[C@H](OC)C3)[C@H](C)[C@@H](O)CC1=O)[C@H](C)C[C@@H]2OC [tacrolimus] | 9.3 | 4.09 | 78.26 | – | – | – | – | Condition Seriousness [2]: 3.13; Adverse Event Seriousness [2]: 14.77; Outcome [2]: 15.75
O=C1CCC(N2C(=O)c3ccccc3C2=O)C(=O)N1 (stereo not shown) [thalidomide] | – | – | – | 17.30 | 22.64 | – | – | –
Cc1ccsc1C(=CCCN1CCC[C@@H](C(=O)O)C1)c1sccc1C [tiagabine hydrochloride] | – | – | – | 10.82 | 12.04 | 6.41 | 48.70 | –
CC1(C)O[C@@H]2[C@@H](CO[C@@]3(COS(N)(=O)=O)OC(C)(C)O[C@@H]23)O1 [topiramate] | – | – | – | 11.28 | 11.96 | 4.29 | 47.54 | –
CCCCC[C@H](O)CC[C@@H]1[C@H]2Cc3cccc(OCC(=O)O)c3C[C@H]2C[C@H]1O [treprostinil] | 0.0 | – | – | – | – | – | – | Condition Seriousness [2]: 4.00
CCCC(CCC)C(=O)[O-].[Na+] [valproate sodium] | – | – | – | 10.26 | 13.09 | 5.64 | 48.83 | –
CCCC(CCC)C(=O)O [valproic acid] | – | – | – | 12.54 | 16.41 | 5.34 | 54.78 | –
C=CC(N)CCC(=O)O (stereo not shown) [vigabatrin] | – | – | – | 13.32 | 13.81 | 4.80 | 51.42 | –
O=P(O)(O)C(O)(Cn1ccnc1)P(=O)(O)O [zoledronic acid (Reclast), zoledronic acid] | – | – | – | 12.33 | 16.89 | 3.53 | 53.23 | –
O=P(O)(O)C(O)(Cn1ccnc1)P(=O)(O)O [zoledronic acid (Zometa), zoledronic acid] | – | – | – | 14.61 | 7.55 | 10.08 | 53.50 | –
NS(=O)(=O)Cc1noc2ccccc12 [zonisamide] | – | – | – | 11.03 | 13.71 | 4.73 | 49.83 | –
